System: Wistar (Crl:WI(Han)) rats
Experiment: Mass spectrometry-based plasma metabolite profiling of rats treated with known inducers of thyroid function impairment
Type: in vivo, rat
Settings: ratio of group medians vs controls
Excerpt: At the beginning of the study the animals were 10-11 weeks old. Each dose group in the studies consisted of five rats per sex, and was compared with controls (10 rats per sex). […] The dose levels were chosen to show the typical overt (high dose) and slight (low dose) toxicological symptoms of the substances as described in the literature or in BASF internal study reports.
Blood samples were withdrawn from the retro-orbital sinus in all rats under isoflurane anesthesia on study days 7, 14 and 28 after a fasting period of 16-20 hours.
For mass spectrometry-based metabolite profiling analysis, plasma samples were extracted by a proprietary method which delivers a polar and a non-polar fraction. For GC-MS analysis, the non-polar fraction was treated with methanol under acidic conditions to yield the fatty acid methyl esters. Both fractions were further derivatised with Omethyl-hydroxyamine hydrochloride and pyridine to convert oxo groups to Omethyloximes and subsequently with a silylating agent before analysis.
In LC-MS/MS analysis, both fractions were reconstituted in appropriate solvent mixtures. HPLC was performed by gradient elution on reversed phase separation columns. For mass spectrometric detection metanomics proprietary technology was applied, which allows target and high sensitivity MRM (Multiple Reaction Monitoring) profiling in parallel to a full screen analysis. […] Moreover, several hundred additional analytes giving a fingerprint of the sample were included in the methods.
Following comprehensive analytical validation steps, the data for each analyte were normalized against data from pool samples. These samples were run in parallel through the whole process to account for process variability.
The sex- and day-stratified heteroscedastic t-test (“Welch test”) was applied to compare treated groups with respective controls. p-Values and ratios of corresponding group medians were collected as metabolic profiles and fed into a database.

[1] = female rats, fh7 (study day 7), Table 3
[2] = female rats, fh14 (study day 14), Table 3
[3] = female rats, fh28 (study day 28), Table 3
[4] = male rats, mh7 (study day 7), Table 4
[5] = male rats, mh14 (study day 14), Table 4
[6] = male rats, mh28 (study day 28), Table 4

CCC(CC)Nc1c([N+](=O)[O-])cc(C)c(C)c1[N+](=O)[O-] [Pendimethalin]
Arachidonic acid (C20:cis[58,11,14]4) [1]: 2.07 | Behenic acid (C22:0) [1]: 2.05 | Cholesterol [1]: 2.09 | Cysteine [1]: 0.52 | Docosahexaenoic acid (C22:cis[4,7,10,13,16,19]6) [1]: 1.85 | Dodecanol [1]: 1.24 | Eicosanoic acid (C20:0) [1]: 1.52 | Glycerol phosphate [1]: 1.91 | Heptadecanoic acid (C17:0) [1]: 1.35 | Linoleic acid (C18:cis[9,12]2) [1]: 1.38 | Nervonic acid C24:(cis[15]1) [1]: 3.51 | Palmitic acid (C16:0) [1]: 1.49 | Sphingomyelin (d18:1, C16:0) [1]: 2.01 | Stearic acid (C18:0) [1]: 1.86 | Threonic acid [1]: 1.85 | dihomo-gamma-Linolenic acid (C20:cis[8,11,14]3) [1]: 1.77 | erythro-Sphingosine [1]: 3.26 | gamma-Linolenic acid (C18:cis[6,9,12]3) [1]: 1.61 | myo-Inositol-2-phosphate [1]: 2.82 | threo-Sphingosine [1]: 2.95 | Arachidonic acid (C20:cis[58,11,14]4) [2]: 2.24 | Behenic acid (C22:0) [2]: 1.89 | Cholesterol [2]: 2.17 | Cysteine [2]: 0.56 | Docosahexaenoic acid (C22:cis[4,7,10,13,16,19]6) [2]: 1.82 | Dodecanol [2]: 1.31 | Eicosanoic acid (C20:0) [2]: 1.82 | Glycerol phosphate [2]: 1.93 | Heptadecanoic acid (C17:0) [2]: 1.56 | Linoleic acid (C18:cis[9,12]2) [2]: 1.63 | Nervonic acid C24:(cis[15]1) [2]: 2.62 | Palmitic acid (C16:0) [2]: 1.81 | Sphingomyelin (d18:1, C16:0) [2]: 1.64 | Stearic acid (C18:0) [2]: 1.97 | Threonic acid [2]: 1.79 | dihomo-gamma-Linolenic acid (C20:cis[8,11,14]3) [2]: 3.05 | erythro-Sphingosine [2]: 2.60 | gamma-Linolenic acid (C18:cis[6,9,12]3) [2]: 2.29 | myo-Inositol-2-phosphate [2]: 2.74 | threo-Sphingosine [2]: 2.67 | Arachidonic acid (C20:cis[58,11,14]4) [3]: 2.31 | Behenic acid (C22:0) [3]: 1.94 | Cholesterol [3]: 2.44 | Cysteine [3]: 0.95 | Docosahexaenoic acid (C22:cis[4,7,10,13,16,19]6) [3]: 1.85 | Dodecanol [3]: 1.31 | Eicosanoic acid (C20:0) [3]: 1.61 | Glycerol phosphate [3]: 2.06 | Heptadecanoic acid (C17:0) [3]: 1.63 | Linoleic acid (C18:cis[9,12]2) [3]: 1.36 | Nervonic acid C24:(cis[15]1) [3]: 2.54 | Palmitic acid (C16:0) [3]: 1.67 | Sphingomyelin (d18:1, C16:0) [3]: 1.58 | Stearic acid (C18:0) [3]: 2.12 | Threonic acid [3]: 2.05 | dihomo-gamma-Linolenic acid (C20:cis[8,11,14]3) [3]: 2.43 | erythro-Sphingosine [3]: 2.81 | gamma-Linolenic acid (C18:cis[6,9,12]3) [3]: 2.57 | myo-Inositol-2-phosphate [3]: 2.66 | threo-Sphingosine [3]: 2.49 | Behenic acid (C22:0) [4]: 1.94 | Cholesterol [4]: 1.67 | Citrate [4]: 0.86 | Cytosine [4]: 0.79 | Galactose, lipid fraction [4]: 1.81 | Glycerol phosphate [4]: 2.06 | Glycine [4]: 1.11 | Lignoceric acid (C24:0) [4]: 2.32 | Mannose [4]: 1.31 | Nervonic acid C24:(cis[15]1) [4]: 2.90 | Phospha-tidylcholine (C18:0, 18:2) [4]: 1.26 | Sphingomyelin (d18:1, C16:0) [4]: 2.10 | Stearic acid (C18:0) [4]: 1.64 | Threonic acid [4]: 1.39 | dihomo-gamma-Linolenic acis (C20:cis[8,11,14]3) [4]: 2.92 | erythro-Sphingosine [4]: 2.78 | myo-Inositol-2-phosphate [4]: 3.25 | threo-Sphingosine [4]: 2.96 | Behenic acid (C22:0) [5]: 1.90 | Cholesterol [5]: 2.03 | Citrate [5]: 0.83 | Cytosine [5]: 0.92 | Galactose, lipid fraction [5]: 2.03 | Glycerol phosphate [5]: 2.38 | Glycine [5]: 1.15 | Lignoceric acid (C24:0) [5]: 2.93 | Mannose [5]: 1.39 | Nervonic acid C24:(cis[15]1) [5]: 2.99 | Phospha-tidylcholine (C18:0, 18:2) [5]: 1.25 | Sphingomyelin (d18:1, C16:0) [5]: 1.97 | Stearic acid (C18:0) [5]: 2.28 | Threonic acid [5]: 1.47 | dihomo-gamma-Linolenic acis (C20:cis[8,11,14]3) [5]: 3.53 | erythro-Sphingosine [5]: 3.33 | myo-Inositol-2-phosphate [5]: 3.57 | threo-Sphingosine [5]: 3.52 | Behenic acid (C22:0) [6]: 1.79 | Cholesterol [6]: 2.29 | Citrate [6]: 0.87 | Cytosine [6]: 0.81 | Galactose, lipid fraction [6]: 2.23 | Glycerol phosphate [6]: 2.34 | Glycine [6]: 1.32 | Lignoceric acid (C24:0) [6]: 2.42 | Mannose [6]: 1.40 | Nervonic acid C24:(cis[15]1) [6]: 3.07 | Phospha-tidylcholine (C18:0, 18:2) [6]: 1.32 | Sphingomyelin (d18:1, C16:0) [6]: 2.03 | Stearic acid (C18:0) [6]: 2.12 | Threonic acid [6]: 1.85 | dihomo-gamma-Linolenic acis (C20:cis[8,11,14]3) [6]: 2.76 | erythro-Sphingosine [6]: 2.69 | myo-Inositol-2-phosphate [6]: 2.79 | threo-Sphingosine [6]: 2.73

CCC1(c2ccccc2)C(=O)NC(=O)NC1=O [Phenobarbital sodium]
Behenic acid (C22:0) [4]: 1.03 | Cholesterol [4]: 1.16 | Citrate [4]: 0.89 | Cytosine [4]: 1.06 | Galactose, lipid fraction [4]: 1.12 | Glycerol phosphate [4]: 1.05 | Glycine [4]: 0.95 | Lignoceric acid (C24:0) [4]: 1.21 | Mannose [4]: 1.08 | Nervonic acid C24:(cis[15]1) [4]: 1.27 | Phospha-tidylcholine (C18:0, 18:2) [4]: 1.13 | Sphingomyelin (d18:1, C16:0) [4]: 1.30 | Stearic acid (C18:0) [4]: 0.99 | Threonic acid [4]: 1.86 | dihomo-gamma-Linolenic acis (C20:cis[8,11,14]3) [4]: 1.06 | erythro-Sphingosine [4]: 1.39 | myo-Inositol-2-phosphate [4]: 1.26 | threo-Sphingosine [4]: 1.39 | Behenic acid (C22:0) [5]: 1.11 | Cholesterol [5]: 1.09 | Citrate [5]: 0.93 | Cytosine [5]: 1.07 | Galactose, lipid fraction [5]: 1.18 | Glycerol phosphate [5]: 1.04 | Glycine [5]: 1.18 | Lignoceric acid (C24:0) [5]: 1.18 | Mannose [5]: 1.05 | Nervonic acid C24:(cis[15]1) [5]: 1.77 | Phospha-tidylcholine (C18:0, 18:2) [5]: 1.14 | Sphingomyelin (d18:1, C16:0) [5]: 1.55 | Stearic acid (C18:0) [5]: 1.19 | Threonic acid [5]: 1.95 | dihomo-gamma-Linolenic acis (C20:cis[8,11,14]3) [5]: 1.03 | erythro-Sphingosine [5]: 1.56 | myo-Inositol-2-phosphate [5]: 1.16 | threo-Sphingosine [5]: 1.61 | Behenic acid (C22:0) [6]: 1.21 | Cholesterol [6]: 1.18 | Citrate [6]: 0.96 | Cytosine [6]: 0.98 | Galactose, lipid fraction [6]: 1.06 | Glycerol phosphate [6]: 1.05 | Glycine [6]: 1.12 | Lignoceric acid (C24:0) [6]: 1.25 | Mannose [6]: 1.09 | Nervonic acid C24:(cis[15]1) [6]: 1.65 | Phospha-tidylcholine (C18:0, 18:2) [6]: 1.05 | Sphingomyelin (d18:1, C16:0) [6]: 1.44 | Stearic acid (C18:0) [6]: 1.09 | Threonic acid [6]: 1.88 | dihomo-gamma-Linolenic acis (C20:cis[8,11,14]3) [6]: 0.96 | erythro-Sphingosine [6]: 1.65 | myo-Inositol-2-phosphate [6]: 1.15 | threo-Sphingosine [6]: 1.50

Cc1c[nH]nc1C.O=P(O)(O)O [3,4-Dimethylpyrazolphosphat]
Arachidonic acid (C20:cis[58,11,14]4) [1]: 1.36 | Behenic acid (C22:0) [1]: 1.31 | Cholesterol [1]: 1.24 | Cysteine [1]: 0.78 | Docosahexaenoic acid (C22:cis[4,7,10,13,16,19]6) [1]: 2.15 | Dodecanol [1]: 1.06 | Eicosanoic acid (C20:0) [1]: 1.14 | Glycerol phosphate [1]: 1.29 | Heptadecanoic acid (C17:0) [1]: 1.30 | Linoleic acid (C18:cis[9,12]2) [1]: 1.29 | Nervonic acid C24:(cis[15]1) [1]: 1.60 | Palmitic acid (C16:0) [1]: 1.34 | Sphingomyelin (d18:1, C16:0) [1]: 1.28 | Stearic acid (C18:0) [1]: 1.30 | Threonic acid [1]: 1.51 | dihomo-gamma-Linolenic acid (C20:cis[8,11,14]3) [1]: 1.36 | erythro-Sphingosine [1]: 1.40 | gamma-Linolenic acid (C18:cis[6,9,12]3) [1]: 1.17 | myo-Inositol-2-phosphate [1]: 1.26 | threo-Sphingosine [1]: 1.27 | Arachidonic acid (C20:cis[58,11,14]4) [2]: 1.75 | Behenic acid (C22:0) [2]: 1.82 | Cholesterol [2]: 1.73 | Cysteine [2]: 1.29 | Docosahexaenoic acid (C22:cis[4,7,10,13,16,19]6) [2]: 2.19 | Dodecanol [2]: 1.17 | Eicosanoic acid (C20:0) [2]: 1.61 | Glycerol phosphate [2]: 1.69 | Heptadecanoic acid (C17:0) [2]: 1.34 | Linoleic acid (C18:cis[9,12]2) [2]: 1.29 | Nervonic acid C24:(cis[15]1) [2]: 1.60 | Palmitic acid (C16:0) [2]: 1.34 | Sphingomyelin (d18:1, C16:0) [2]: 1.35 | Stearic acid (C18:0) [2]: 1.71 | Threonic acid [2]: 1.17 | dihomo-gamma-Linolenic acid (C20:cis[8,11,14]3) [2]: 1.80 | erythro-Sphingosine [2]: 1.90 | gamma-Linolenic acid (C18:cis[6,9,12]3) [2]: 1.87 | myo-Inositol-2-phosphate [2]: 1.78 | threo-Sphingosine [2]: 1.72 | Arachidonic acid (C20:cis[58,11,14]4) [3]: 1.67 | Behenic acid (C22:0) [3]: 1.43 | Cholesterol [3]: 1.69 | Cysteine [3]: 1.00 | Docosahexaenoic acid (C22:cis[4,7,10,13,16,19]6) [3]: 2.25 | Dodecanol [3]: 1.26 | Eicosanoic acid (C20:0) [3]: 1.38 | Glycerol phosphate [3]: 1.55 | Heptadecanoic acid (C17:0) [3]: 1.39 | Linoleic acid (C18:cis[9,12]2) [3]: 1.44 | Nervonic acid C24:(cis[15]1) [3]: 1.78 | Palmitic acid (C16:0) [3]: 1.55 | Sphingomyelin (d18:1, C16:0) [3]: 1.58 | Stearic acid (C18:0) [3]: 1.62 | Threonic acid [3]: 1.36 | dihomo-gamma-Linolenic acid (C20:cis[8,11,14]3) [3]: 1.86 | erythro-Sphingosine [3]: 1.54 | gamma-Linolenic acid (C18:cis[6,9,12]3) [3]: 1.96 | myo-Inositol-2-phosphate [3]: 1.91 | threo-Sphingosine [3]: 1.58
